{"source": "patent US6818439B1", "about": "“Methods for administration of recombinant gene delivery vehicles for treatment of hemophilia and other disorders” (priority 1994, dated 2004)", "key": {"[1]": {"test_system": "liver", "test": "Peroxisome proliferator induced liver transduction by beta galactosidase vector, XGAL staining", "type": "in vivo, Balb/C mice", "quoted_text": "On day 4, 200 ul beta galactosidase retroviral vector (1E9 cfu/ml, DA-Bengal) was injected via tail vein. On day 7, the mice were sacrificed, tissues were fixed in 2% formaldehyde/PBS for 24 hr, and blocked into slices of 2-5 mm. Sections were rinsed in PBS and stained in fresh XGAL solution (5 mM potassium ferricyanide/5 mM potassium ferrocyanide/2 mM MgCl2/0.5mg/ml XGAL in DMF (Gold Scientific)/1×PBS). Tissue was embedded in paraffin (−50 degrees), sectioned at 5 microns (PML, San Diego), and counterstained with Hematoxylin/Eosin."}, "[2]": {"test": "Ganciclovir toxicity in the mouse dose study", "type": "in vivo, mice"}, "[3]": {"test_system": "CT26 cells", "test": "Effect of ganciclovir on unmodified CT26 cells, cell counts", "type": "cell-based, mouse", "from_the_text": "(§1) One plate of each cell type was left untreated."}, "[4]": {"test_system": "CT26TK Neo cells", "test": "Effect of ganciclovir on CT26TK Neo cells (TK-3 transduced), cell counts", "conditions": "lowest dose 6.25 μg/ml, twice per day for four consecutive days", "quoted_text": "CT26 cells are transduced with G-pseudotyped TK-3 vector. Twenty-four hours after adding the viral supernatant, the CT26 cells are placed under G-418 selection (450 µg/ml). After 10 days incubation, a G-418 selected pool is obtained and designated CT26TK Neo. CM26 TK Neo cells were seeded into six 10 cm^2 plates at a density of 2.5×10^6 per plate. As controls, each of two other cell types, CT26 and CT26 beta-gal (this cell line was transduced with a retroviral vector carrying the reporter gene β-galactosidase from E. coli.), were also seeded into six 10 cm^2 plates as controls. Five plates of each cell type were treated twice per day for four consecutive days with medium containing ganciclovir concentrations of 100 μg/ml, 50 μg/ml, 25 μg/ml, 12.5 μg/ml and 6.25 μg/ml. One plate of each cell type was left untreated. Afterwards, the cells were removed from each dish using trypsin-EDTA, resuspended in DMEM with 10% FBS and counted."}, "[5]": {"test_system": "CT26TK Neo", "test": "Ganciclovir on in vivo tumor growth of CT26TK Neo", "set-up": "species or system mice", "conditions": "62.5 mg/Kg I.P. twice daily, S.C. tumor", "description": "(§2) In order to determine whether ganciclovir has an effect on the growth of unmodified CT26 tumor cells in vivo, 2 groups of 7 mice are injected S.C. with 2×10^5 unmodified CT26 cells and 2 groups of 7 mice are injected S.C. with 2×10^5 CT26TK Neo cells. Seven days after tumor implantation, one group of CT26 injected mice and one group of CT26TK Neo injected mice are placed on a twice daily (AM and PM) regimen of I.P. ganciclovir at 62.5 mg/Kg. These mice are treated for 12 days or until the CT26TK Neo injected animals have no detectable tumor burden. Tumor growth is monitored over a three week period."}, "[6]": {"test_system": "CT26TK Neo", "test": "Ganciclovir dose study in mice injected with CT26TK Neo cells (tumor regression)", "type": "in vivo", "description": "In order to test whether in vivo transduction of a murine tumor could be used to treat the disease, an experiment was performed to determine the optimal concentration of ganciclovir necessary to eliminate a tumor that was transduced and selected in vitro to assure 100% transduction. Twelve groups of 3 mice each are injected with 2×10^5 CT26TK Neo cells. Six groups of mice are injected with these cells intraperitoneally (I.P.) and six groups of mice are injected subcutaneously (S.C.). Two other groups of 3 mice each are injected with 2×10^5 unmodified CT26 cells (as a control) either I.P. or S.C.\nTen days after the injection of the CT26 or CT26TK Neo cells into these groups of mice, several concentrations of ganciclovir treatment are initiated. Each dose regimen consists of 2 daily AM and PM I.P. injections of ganciclovir.\nTumor measurements were made for 23 days FIG. 11). CT26TK Neo grew only slightly slower than unmodified CT26 in the absence of ganciclovir. […] After 24 days, the I.P. injected animals were sacrificed and evaluated. The optimal concentration for anti-tumor effect was similar whether the tumor was grown I.P. or S.C."}, "[7]": {"test_system": "CT26", "test": "Ganciclovir on in vivo tumor growth of unmodified CT26", "set-up": "species or system mice", "conditions": "62.5 mg/Kg I.P. twice daily, S.C. tumor", "description": "as §2"}, "[8]": {"test_system": "CT26 beta-gal cells", "test": "Effect of ganciclovir on CT26 beta-gal cells, cell counts", "type": "cell-based, mouse", "from_the_text": "as §1"}, "[9]": {"test_system": "hepatitis D", "conditions": "cited from earlier work"}, "[10]": {"test_system": "hepatitis B", "conditions": "cited from earlier work"}, "[11]": {"test_system": "hepatitis C", "conditions": "six months after termination of treatment; cited from earlier work"}, "[12]": {"conditions": "6.25 μg/ml or 12.5 μg/ml, twice per day for four days"}}, "note": "Read-outs that look alike come from different tables or passages of the source.", "data": [{"compound": "Cc1cccc(Nc2cc(Cl)nc(SCC(=O)O)n2)c1C", "note": "[WY 14643]", "values": [{"measurement": "blue cells in liver (background staining)", "setting": "[1]; WY liver: mitogen, no vector", "result": "No blue cells"}, {"measurement": "blue cells in liver, periportally and on the periphery", "setting": "[1]; group I: IP 500 μl of 15 mg/ml once per day for 4 days plus beta galactosidase vector", "result": "Numerous blue cells"}, {"measurement": "blue cells in liver, periportally and on the periphery", "setting": "[1]; group II: gavage 200 μl of 15 mg/ml once per day for 4 days plus beta galactosidase vector", "result": "Numerous blue cells"}]}, {"compound": "Nc1nc(O)c2ncn(COC(CO)CO)c2n1", "note": "[ganciclovir]", "values": [{"measurement": "tolerability", "setting": "[2]; 15.63 mg/Kg, 31.25 mg/Kg and 62.5 mg/Kg groups, treated for an additional 7 days", "result": "able to tolerate the treatment"}, {"measurement": "toxicity observed", "setting": "[2]; 62.5 mg/Kg groups", "result": "not life threatening and reversible"}, {"measurement": "survival (toxic effects)", "setting": "[2]; 125 mg/Kg, 250 mg/Kg and 500 mg/Kg groups, 2 daily I.P. injections, after 5 days", "result": "dead due to the toxic effects"}, {"measurement": "effect on cell growth", "setting": "[3]; [12]", "result": "did not have an effect"}, {"measurement": "effect on cell growth", "setting": "[3]; beginning at 25 ug/ml", "result": "dose-dependent decrease in cell growth"}, {"measurement": "cytotoxic effect on CT26 TKneo cells", "setting": "[4]", "result": "dramatic cytotoxic effect"}, {"measurement": "tumor burden", "setting": "[5]", "result": "dramatic decrease in tumor burden"}, {"measurement": "tumor regression", "setting": "[6]; 15.63 mg/Kg, compared to untreated control groups", "result": "Little or no effect"}, {"measurement": "tumor regression", "setting": "[6]; 31.25 mg/Kg", "result": "Partial tumor regression"}, {"measurement": "tumor regression", "setting": "[6]; 62.5 mg/Kg regimen, 2 daily I.P. injections", "result": "Complete tumor regression"}, {"measurement": "tumor size versus untreated mice", "setting": "[7]", "result": "somewhat smaller"}, {"measurement": "effect on cell growth", "setting": "[8]; [12]", "result": "did not have an effect"}, {"measurement": "effect on cell growth", "setting": "[8]; beginning at 25 ug/ml", "result": "dose-dependent decrease in cell growth"}]}, {"compound": "alpha interferon", "values": [{"measurement": "responders relapsed", "setting": "[9]; in vivo", "result": "85-90%"}, {"measurement": "patients responding to therapy", "setting": "[9]; pilot studies", "result": "25-60%"}, {"measurement": "patients responding to treatment", "setting": "[10]; patients infected as adults", "result": "about 35%"}, {"measurement": "patients responding to treatment", "setting": "[10]; perinatal infectees", "result": "about 10%"}, {"measurement": "responders relapsed", "setting": "[11]", "result": "half"}]}]}
